Assay in all cases: E. coli hemG growth inhibition by herbicide, AtPPO1 variant
What all share (assay type): cell-based
Holding throughout (details): read-out: percentage growth inhibition

Experiment [1] has as its target T1, AtPPO1 V365L (Arabidopsis thaliana, UniProt P55826, V365L).
T1 construct: expressed in transfected cells; host or cells: E. coli BL21(DE3) hemG (pET24a, T7 promoter)
T1 sequence (P55826 35-537 V365L): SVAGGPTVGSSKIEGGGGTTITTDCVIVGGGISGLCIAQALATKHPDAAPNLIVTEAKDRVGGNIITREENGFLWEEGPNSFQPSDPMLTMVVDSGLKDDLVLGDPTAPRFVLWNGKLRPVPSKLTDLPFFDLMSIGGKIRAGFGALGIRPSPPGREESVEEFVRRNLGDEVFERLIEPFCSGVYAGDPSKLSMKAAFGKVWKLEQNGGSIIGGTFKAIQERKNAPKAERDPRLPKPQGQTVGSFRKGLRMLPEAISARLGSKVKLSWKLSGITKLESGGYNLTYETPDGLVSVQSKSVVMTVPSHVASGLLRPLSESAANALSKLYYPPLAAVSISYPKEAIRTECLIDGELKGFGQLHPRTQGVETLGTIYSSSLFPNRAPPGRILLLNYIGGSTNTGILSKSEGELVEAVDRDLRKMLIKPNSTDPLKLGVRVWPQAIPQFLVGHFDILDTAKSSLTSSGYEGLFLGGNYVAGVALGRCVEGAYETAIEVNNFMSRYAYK
A digest of the protocol:
(§1)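 Read-out is OD600 at 24 h post inoculation, converted to percent growth inhibition relative to DMSO. The hemG-deleted BL21(DE3) host relied on the plasmid-borne AtPPO1 variant, induced with 0.1 mM IPTG, with 6.25 ppm herbicide 0 or E or 0.78 ppm herbicide B present at 37° C.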

Experiment [2] concerns the target T2, AtPPO1 Q272I (Arabidopsis thaliana, UniProt P55826, Q272I).
T2 construct: expressed in transfected cells; host or cells: E. coli BL21(DE3) hemG (hemG replaced by CmR), pET24a plasmid
T2 sequence (P55826 35-537 Q272I): T1 sequence (P55826 35-537 V365L) with Q238I, L331V
The procedure, abridged:
as §1

For experiment [3], the target named is T3, AtPPO1 L360C (Arabidopsis thaliana, UniProt P55826, L360C).
T3 construct: expressed in transfected cells; host or cells: E. coli BL21(DE3) hemG (pET24a, T7 promoter)
T3 sequence (P55826 35-537 L360C): T1 sequence (P55826 35-537 V365L) with L326C, L331V
A digest of the protocol: as §1

Experiment [4] has as its target T4, AtPPO1 Y426L (Arabidopsis thaliana, UniProt P55826, Y426L).
T4 construct: expressed in transfected cells; host or cells: E. coli BL21(DE3) hemG (pET24a, T7 promoter)
T4 sequence (P55826 35-537 Y426L): T1 sequence (P55826 35-537 V365L) with L331V, Y392L
A digest of the protocol:
as §1

Changes are numbered by the printed parent chain.

As to `C#CCN1C(=O)C(F)(F)Oc2cc(F)c(-n3c(=O)n(C)c(=S)n(C)c3=O)cc21` [Herbicide B, trifludimoxazin], the inhibition at 0.78 ppm came to 11% in experiment [1], 24% in experiment [2], 25% in experiment [3] and 15% in experiment [4].

Turning to `CCOC(=O)[C@]1(C)CC(c2cc(-n3c(=O)n(C)c(=S)n(C)c3=O)c(F)cc2Cl)=NO1` [Herbicide D, ethyl (5S)-3-[2-chloro-5-(3,5-dimethyl-2,6-dioxo-4-thioxo-1,3,5-triazinan-1-yl)-4-fluoro-phenyl]-5-methyl-4H-isoxazole-5-carboxylate], the inhibition at 6.25 ppm in experiment [1] came to 55%; in experiment [2] it was 29%; in experiment [3], 21%; in experiment [4], 25%.

Regarding `CC(C)N(C)S(=O)(=O)NC(=O)c1cc(-n2c(=O)cc(C(F)(F)F)n(C)c2=O)c(F)cc1Cl` [Herbicide E, saflufenacil], the inhibition at 6.25 ppm was found to be 27% in experiment [1], 63% in experiment [2], 33% in experiment [3] and 12% in experiment [4].

Usually inhibition stands for the share of the control response that was lost under treatment.

(Values after US20260297542A1, “HERBICIDE RESISTANT PLANTS” (SYNGENTA CROP PROTECTION AG, priority 2023, published 2026).)
